Data from ChEMBL document CHEMBL1140508, “Novel C2-purine position analogs of nitrobenzylmercaptopurine riboside as human equilibrative nucleoside transporter 1 inhibitors” (Bioorg Med Chem, 2007).

Each molecule was assayed against T1, Equilibrative nucleoside transporter 1 (Homo sapiens, UniProt Q99808) (assay: Displacement of SAENTA-fluorescein from human ENT1 in K562 cells after 45 mins by flow cytometry).
T1 sequence (Q99808 whole entry): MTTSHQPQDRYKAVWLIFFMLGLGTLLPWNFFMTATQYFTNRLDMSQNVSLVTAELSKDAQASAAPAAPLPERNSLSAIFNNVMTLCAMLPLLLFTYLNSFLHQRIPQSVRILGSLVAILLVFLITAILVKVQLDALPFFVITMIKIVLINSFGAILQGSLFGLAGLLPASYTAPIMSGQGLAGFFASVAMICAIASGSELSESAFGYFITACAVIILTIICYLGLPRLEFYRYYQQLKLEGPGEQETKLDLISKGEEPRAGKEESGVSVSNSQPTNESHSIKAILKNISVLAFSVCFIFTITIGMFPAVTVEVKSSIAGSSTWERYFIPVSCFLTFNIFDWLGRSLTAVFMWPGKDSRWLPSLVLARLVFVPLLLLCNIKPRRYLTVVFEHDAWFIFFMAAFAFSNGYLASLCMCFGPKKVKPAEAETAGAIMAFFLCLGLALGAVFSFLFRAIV
Assay type: cell-based

Going from CN(C)c1nc(SCc2ccc([N+](=O)[O-])cc2)c2ncn([C@@H]3O[C@H](CO)[C@@H](O)[C@H]3O)c2n1 to Nc1nc(SCc2ccc([N+](=O)[O-])cc2)c2ncn([C@@H]3O[C@H](CO)[C@@H](O)[C@H]3O)c2n1, the Ki falls from 429 nM to 1.1 nM (390-fold).

CCCCNc1nc(SCc2ccc([N+](=O)[O-])cc2)c2ncn([C@@H]3O[C@H](CO)[C@@H](O)[C@H]3O)c2n1 and CCCCCNc1nc(SCc2ccc([N+](=O)[O-])cc2)c2ncn([C@@H]3O[C@H](CO)[C@@H](O)[C@H]3O)c2n1 are within 1.5-fold of each other in Ki: 325 nM for the first, 357 nM for the second.

CNc1nc(SCc2ccc([N+](=O)[O-])cc2)c2ncn([C@@H]3O[C@H](CO)[C@@H](O)[C@H]3O)c2n1 and CCNc1nc(SCc2ccc([N+](=O)[O-])cc2)c2ncn([C@@H]3O[C@H](CO)[C@@H](O)[C@H]3O)c2n1 are the same in Ki: 24 nM for the first, 24 nM for the second.

First: CC(=O)Nc1nc(SCc2ccc([N+](=O)[O-])cc2)c2ncn([C@@H]3O[C@H](CO)[C@@H](O)[C@H]3O)c2n1
Second: CCCNc1nc(SCc2ccc([N+](=O)[O-])cc2)c2ncn([C@@H]3O[C@H](CO)[C@@H](O)[C@H]3O)c2n1
The Ki of the first is 5.7-fold lower: 34 nM for the first, 193 nM for the second. The first binds more tightly here.

Going from O=[N+]([O-])c1ccc(CSc2nc(F)nc3c2ncn3[C@@H]2O[C@H](CO)[C@@H](O)[C@H]2O)cc1 to O=[N+]([O-])c1ccc(CSc2nc(I)nc3c2ncn3[C@@H]2O[C@H](CO)[C@@H](O)[C@H]2O)cc1, the Ki rises from 2.1 nM to 11 nM (5.2-fold). The first binds more tightly here.

Compared with O=[N+]([O-])c1ccc(CSc2nc(NCc3ccccc3)nc3c2ncn3[C@@H]2O[C@H](CO)[C@@H](O)[C@H]2O)cc1, O=[N+]([O-])c1ccc(CSc2nc(NCCc3ccccc3)nc3c2ncn3[C@@H]2O[C@H](CO)[C@@H](O)[C@H]2O)cc1 is 1.6-fold higher in Ki: 247 nM for the first, 394 nM for the second.

First: O=[N+]([O-])c1ccc(CSc2nc(NC3CCCCC3)nc3c2ncn3[C@@H]2O[C@H](CO)[C@@H](O)[C@H]2O)cc1
Second: O=[N+]([O-])c1ccc(CSc2nc(NC3CCCC3)nc3c2ncn3[C@@H]2O[C@H](CO)[C@@H](O)[C@H]2O)cc1
The Ki of the first is 3.2-fold higher: 400 nM for the first, 125 nM for the second.

O=[N+]([O-])c1ccc(CSc2nc(NC3CC3)nc3c2ncn3[C@@H]2O[C@H](CO)[C@@H](O)[C@H]2O)cc1 and O=[N+]([O-])c1ccc(CSc2nc(NC3CCC3)nc3c2ncn3[C@@H]2O[C@H](CO)[C@@H](O)[C@H]2O)cc1 are within 1.5-fold of each other in Ki: 25 nM for the first, 33 nM for the second.

Going from O=C(Nc1nc(SCc2ccc([N+](=O)[O-])cc2)c2ncn([C@@H]3O[C@H](CO)[C@@H](O)[C@H]3O)c2n1)c1ccccc1 to O=[N+]([O-])c1ccc(CSc2nc(NCCO)nc3c2ncn3[C@@H]2O[C@H](CO)[C@@H](O)[C@H]2O)cc1, the Ki falls from 315 nM to 86 nM (3.7-fold). The second binds more tightly here.

O=[N+]([O-])c1ccc(CSc2nc(Br)nc3c2ncn3[C@@H]2O[C@H](CO)[C@@H](O)[C@H]2O)cc1 and O=[N+]([O-])c1ccc(CSc2nc(Cl)nc3c2ncn3[C@@H]2O[C@H](CO)[C@@H](O)[C@H]2O)cc1 are the same in Ki: 11 nM for the first, 11 nM for the second.

Work on O=[N+]([O-])c1ccc(CSc2nc(N(CCO)CCO)nc3c2ncn3[C@@H]2O[C@H](CO)[C@@H](O)[C@H]2O)cc1 yielded a Ki of 243 nM.
